Reference: patent publication US8183262B2, “Pyridine derivatives as mGluR2 antagonists” (Hoffmann-La Roche Inc., priority 2007, dated 2012)

Q: For `Cc1cc(-c2ccc(C(F)(F)F)cc2)cc(-c2nc(-c3cccc(S(=O)(=O)NC(C)(C)C)c3)cs2)n1` [Example 263, N-tert-Butyl-3-{2-[6-methyl-4-(4-trifluoromethyl-phenyl)-pyridin-2-yl]-thiazol-4-yl}-benzenesulfonamide], which melting point is on record?
A: 196 °C

Q: For `CCc1cc(-c2ccc(C(F)(F)F)cc2)cc(-c2cccc(-c3ccc(N)nc3)c2)n1` [Example 264, 5-{3-[6-Ethyl-4-(4-trifluoromethyl-phenyl)-pyridin-2-yl]-phenyl}-pyridin-2-ylamine], which melting point is on record?
A: 74 °C

Q: Which melting point does the source give for `CCc1cc(-c2ccc(C(F)(F)F)cc2)cc(-c2cccc(-c3cccc(S(=O)(=O)NC(C)(C)C)c3)c2)n1` [Example 265, 3′-[6-Ethyl-4-(4-trifluoromethyl-phenyl)-pyridin-2-yl]-biphenyl-3-sulfonic acid tert-butylamide] here?
A: 169 °C

Q: For `Cc1cc(-c2ccc(C(F)(F)F)cc2)nc(-c2cccc(-c3ccc(S(N)(=O)=O)s3)c2)c1` [Example 273, 5-{3-[4-Methyl-6-(4-trifluoromethyl-phenyl)-pyridin-2-yl]-phenyl}-thiophene-2-sulfonic acid amide], which melting point is on record?
A: 211 °C

Q: Which melting point does the source give for `Cc1cc(-c2ccc3c(c2)OCO3)cc(-c2cccc(-c3ccc(N)nc3)c2)n1` [Example 276, 5-[3-(4-Benzo[1,3]dioxol-5-yl-6-methyl-pyridin-2-yl)-phenyl]-pyridin-2-ylamine] here?
A: 203 °C

Q: Which melting point does the source give for `CC(C)(C)NS(=O)(=O)c1cnc(-c2cn(-c3cc(C(F)(F)F)cc(-c4ccc(C(F)(F)F)cc4)n3)cn2)s1` [Example 281, 2-{1-[4-Trifluoromethyl-6-(4-trifluoromethyl-phenyl)-pyridin-2-yl]-1H-imidazol-4-yl}-thiazole-5-sulfonic acid tert-butylamide] here?
A: 236 °C

Q: For `NS(=O)(=O)c1cccc(-c2cn(-c3cc(C(F)(F)F)cc(-c4ccc(C(F)(F)F)cc4)n3)cn2)c1` [Example 283, 3-{1-[4-Trifluoromethyl-6-(4-trifluoromethyl-phenyl)-pyridin-2-yl]-1H-imidazol-4-yl}-benzenesulfonamide], which melting point is on record?
A: > 266 °C

Q: For `NS(=O)(=O)c1cnc(-c2cn(-c3cc(C(F)(F)F)cc(-c4ccc(C(F)(F)F)cc4)n3)cn2)s1` [Example 284, 2-{1-[4-Trifluoromethyl-6-(4-trifluoromethyl-phenyl)-pyridin-2-yl]-1H-imidazol-4-yl}-thiazole-5-sulfonic acid amide], which melting point is on record?
A: > 266 °C

Q: Which melting point does the source give for `CC(C)(C)NS(=O)(=O)c1cccc(-c2cc(-c3cc(C(F)(F)F)cc(-c4ccc(C(F)(F)F)cc4)n3)ccn2)c1` [Example 285, N-tert-Butyl-3-[4-trifluoromethyl-6-(4-trifluoromethyl-phenyl)-[2,4′]bipyridinyl-2′-yl]-benzenesulfonamide] here?
A: 196 °C

Q: With `NS(=O)(=O)c1cccc(-c2cc(-c3cc(C(F)(F)F)cc(-c4ccc(C(F)(F)F)cc4)n3)ccn2)c1` [Example 286, 3-[4-Trifluoromethyl-6-(4-trifluoromethyl-phenyl)-[2,4′]bipyridinyl-2′-yl]-benzenesulfonamide] as the molecule, how does the melting point read?
A: 227 °C (dec.)

Q: For `Cc1cc(-c2ccc(C(F)(F)F)cc2)cc(-c2ccnc(-c3cccc(S(=O)(=O)NC(C)(C)C)c3)c2)n1` [Example 287, N-tert-Butyl-3-[6-methyl-4-(4-trifluoromethyl-phenyl)-[2,4′]bipyridinyl-2′-yl]-benzenesulfonamide], which melting point is on record?
A: 189 °C

Q: For `Cc1cc(-c2ccc(C(F)(F)F)cc2)cc(-c2ccnc(-c3cccc(S(N)(=O)=O)c3)c2)n1` [Example 289, 3-[6-Methyl-4-(4-trifluoromethyl-phenyl)-[2,4′]bipyridinyl-2′-yl]-benzenesulfonamide], which melting point is on record?
A: > 250 °C

Q: Which melting point does the source give for `NS(=O)(=O)c1cncc(-c2cn(-c3cc(C(F)(F)F)cc(-c4ccc(C(F)(F)F)cc4)n3)cn2)c1` [Example 290, 5-{1-[4-Trifluoromethyl-6-(4-trifluoromethyl-phenyl)-pyridin-2-yl]-1H-imidazol-4-yl}-pyridine-3-sulfonic acid amide] here?
A: > 250 °C

Q: For `CC(C)(CO)NS(=O)(=O)c1cccc(-c2cn(-c3cc(C(F)(F)F)cc(-c4ccc(C(F)(F)F)cc4)n3)cn2)c1` [Example 291, N-(2-Hydroxy-1,1-dimethyl-ethyl)-3-{1-[4-trifluoromethyl-6-(4-trifluoromethyl-phenyl)-pyridin-2-yl]-1H-imidazol-4-yl}-benzenesulfonamide], which melting point is on record?
A: 150 °C (dec.)

Q: For `Cc1cc(-c2ccc(C(F)(F)F)cc2)cc(-c2cncc(-c3cccc(S(N)(=O)=O)c3)c2)n1` [Example 295, 3-[6-Methyl-4-(4-trifluoromethyl-phenyl)-[2,3′]bipyridinyl-5′-yl]-benzenesulfonamide], which melting point is on record?
A: 235 °C (dec.)

Q: For `NS(=O)(=O)c1cccc(-c2cn(-c3cc(-c4ccc(C(F)(F)F)cc4)cc(C(F)(F)F)n3)cn2)c1` [Example 296, 3-{1-[6-Trifluoromethyl-4-(4-trifluoromethyl-phenyl)-pyridin-2-yl]-1H-imidazol-4-yl}-benzenesulfonamide], which melting point is on record?
A: > 250 °C

Q: Which melting point does the source give for `Cc1cc(-c2ccc(C(F)(F)F)cc2)nc(-c2ccnc(-c3cccc(S(=O)(=O)NC(C)(C)C)c3)c2)c1` [Example 297, N-tert-Butyl-3-[4-methyl-6-(4-trifluoromethyl-phenyl)-[2,4′]bipyridinyl-2′-yl]-benzenesulfonamide] here?
A: 189 °C

Q: Which melting point does the source give for `Cc1nc(-c2cn(-c3cc(-c4ccc(C(F)(F)F)cc4)cc(C(F)(F)F)n3)cn2)sc1S(=O)(=O)NC(C)(C)C` [Example 300, 4-Methyl-2-{1-[6-trifluoromethyl-4-(4-trifluoromethyl-phenyl)-pyridin-2-yl]-1H-imidazol-4-yl}-thiazole-5-sulfonic acid tert-butylamide] here?
A: 260 °C

Q: Which melting point does the source give for `CC(C)(C)NS(=O)(=O)c1ccc(-c2cn(-c3cc(-c4ccc(C(F)(F)F)cc4)cc(C(F)(F)F)n3)cn2)s1` [Example 301, 5-{1-[6-Trifluoromethyl-4-(4-trifluoromethyl-phenyl)-pyridin-2-yl]-1H-imidazol-4-yl}-thiophene-2-sulfonic acid tert-butylamide] here?
A: > 250 °C

Q: With `CC(C)(C)NS(=O)(=O)c1cnc(-c2cn(-c3cc(-c4ccc(C(F)(F)F)cc4)cc(C(F)(F)F)n3)cn2)s1` [Example 302, 2-{1-[6-Trifluoromethyl-4-(4-trifluoromethyl-phenyl)-pyridin-2-yl]-1H-imidazol-4-yl}-thiazole-5-sulfonic acid tert-butylamide] as the molecule, how does the melting point read?
A: 252 °C

Q: For `Cc1cc(-c2ccc(C(F)(F)F)cc2)cc(-c2ccnc(-c3ccc(S(=O)(=O)NC(C)(C)C)s3)n2)n1` [Example 303, 5-{4-[6-Methyl-4-(4-trifluoromethyl-phenyl)-pyridin-2-yl]-pyrimidin-2-yl}-thiophene-2-sulfonic acid tert-butylamide], which melting point is on record?
A: 242 °C (dec.)

Q: For `Cc1cc(-c2ccc(C(F)(F)F)cc2)cc(-c2ccnc(-c3ccc(S(=O)(=O)NC(C)(C)C)s3)c2)n1` [Example 304, 5-[6-Methyl-4-(4-trifluoromethyl-phenyl)-[2,4′]bipyridinyl-2′-yl]-thiophene-2-sulfonic acid tert-butylamide], which melting point is on record?
A: 225 °C

Q: Which melting point does the source give for `Cc1cc(-c2ccc(C(F)(F)F)cc2)cc(-c2cccc(-c3ccc(S(=O)(=O)NC(C)(C)C)s3)n2)n1` [Example 305, 5-[6′-Methyl-4′-(4-trifluoromethyl-phenyl)-[2,2′]bipyridinyl-6-yl]-thiophene-2-sulfonic acid tert-butylamide] here?
A: 227 °C
